Patent publication US12077501B2, “Compounds and compositions for intracellular delivery of agents” (ModernaTX, Inc., priority 2017, dated 2024)

Legend:
hEPO expression = hEPO expression in CD-1 mice compared with MC3; format: in vivo; conditions: intravenous, 0.5 mpk, Table 7e
Excerpt: In contrast, hEPO expression in rats induced by administration of a nanoparticle composition including a compound according to one of formulae (I), (Ia1)-(Ia6), (Ib), (II), (IIa), (III), and (IIIa) was substantially […] than that measured for MC3. […] Tables 7c and 7d show additional protein expressions and clearance data from compositions with various compounds disclosed herein as compared to with MC3. Tables 7e, 7f and 7g show hEPO expression data in CD-1 mice at a dose of 0.5 mpk.

[1] = Encapsulation efficiency of RNA (QUANT-IT RIBOGREEN RNA assay); format: physicochemical; conditions: Table 1c; nanoparticle compositions
In short: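 RiboGreen fluorescence (ex about 480, em about 520 nm) compares nanoparticle samples left intact versus disrupted with 2% Triton X-100 (15 min, 37° C). Samples are first brought to roughly 5 μg/mL in 10 mM Tris-HCl, 1 mM EDTA, pH 7.5; percent free RNA equals the blank-corrected intact/disrupted signal ratio.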

[2] = Particle size and polydispersity index of nanoparticle compositions (Zetasizer Nano ZS); format: physicochemical; conditions: Table 1c; nanoparticle compositions
Procedure: A Zetasizer Nano ZS (Malvem Instruments Ltd, Malvem, Worcestershire, UK) can be used to determine the particle size, the polydispersity index (PDI) and the zeta potential of the nanoparticle compositions in 1×PBS in determining particle size and 15 mM PBS in determining zeta potential.

[3] = pKa of nanoparticle compositions; format: physicochemical; conditions: Table 1c
[4] = Lipid clearance: % dose remaining in liver of CD-1 mice; format: in vivo; conditions: intravenous, 0.5 mg/kg, CD-1 mouse, Table 8a
In short: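 CD-1 mice, 0.5 mpk dose of test-compound nanoparticle formulation; hEPO protein expression read out; clearance data also recorded.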

[5] = Lipid purity change after storage in EtOH for 96 h at 25 or 37 °C; format: physicochemical
Procedure: Nanoparticle compositions including a therapeutic and/or prophylactic agent can be optimized according to the selection of a compound according to one of formulae (I), (Ia1)-(Ia10), (Ib), (Ic), (Id), (Id1)-(Id10), (Ie), (Ie1)-(Ie6), (II), (IIa), (III), and (IIIa), the selection of additional lipids, the amount of each lipid in the lipid component, and the wt:wt ratio of the lipid component to the therapeutic and/or prophylactic agent, as described herein. Initial studies were performed to compare the delivery efficiency of nanoparticle compositions including various compounds according to one of formulae (I), (Ia1)-(Ia10), (Ib), (Ic), (Id), (Id1)-(Id10), (Ie), (Ie1)-(Ie6), (II), (IIa), (III), and (IIIa). The cationic lipid MC3 is a current standard in the art. Also determined was the stability of nanoparticles of the disclosure, i.e., the purity after storage in EtOH for 96h at 25° C. or 37° C. (Table Id).

Compound | AUC (p/s*h) CD-1 mice 0.5 mpk (hEPO expression) [p/s*h] | EE (%) [1] [%] | PDI [2] | Size (nm) [2] [nm] | pKa [3] | % Dose Remaining 24 hr [4] [%] | Lipid % change purity in EtOH, 25° C., 96 h [5] [%] | Lipid % change purity in EtOH, 37° C., 96 h [5] [%]
CCCCCCCCCCCCCCN(CCCCCCCCCCCC(=O)OC)CC(=O)N1CCN(C(=O)CN(CCCCCCCCC)CCN(CCCCCCCCC)CCCCCCCCC)CC1 [Compound 117, Methyl 12-((2-(4-(N-(2-(dinonylamino)ethyl)-N-nonylglycyl)piperazin-1-yl)-2-oxoethyl)(tetradecyl)amino)dodecanoate] | 6.91E+07 | 95.2 | 0.20 | 84.6 | 6.71 | 2.03 | 2.9 | 4.7
CCCCCCCCCCCCCCN(CCCCCCCC(=O)OCCCCC)CCC1CCN(C(=O)CN(CCCCCCCCC)CCN(CCCCCCCCC)CCCCCCCCC)CC1 [Compound 93, Pentyl 8-((2-(1-(N-(2-(dinonylamino)ethyl)-N-nonylglycyl)piperidin-4-yl)ethyl)(tetradecyl)amino)octanoate] | 8.63E+07 | 97.7 | 0.17 | 75.6 | 6.6 | 10.37 | 0 | 2.2
CCCCCCCCCN(CCCCCCCCC)CCN(CCCCCCCCC)CC(=O)N(C)CCN(C)C(=O)CN(CCCCCCCCC)CCCC(=O)OCCCCC [Compound 152, Pentyl 8,11-dimethyl-5,14,17-trinonyl-7,12-dioxo-5,8,11,14,17-pentaazahexacosanoate] | 1.09E+08 | 98.5 | 0.16 | 79.1 | 7.48 | 34.01 | 0 | 2
CCCCCCCCCN(CCCCCCCCC)CCN(CCCCCCCCC)CC(=O)OC1CCC(OC(=O)CN(CCCCCCCCC)CCCCCCCCC)CC1 (centres unmarked) [Compound 115, 4-((N-(2-(Dinonylamino)ethyl)-N-nonylglycyl)oxy)cyclohexyl dinonylglycinate] | 2.31E+06 | 97.0 | 0.16 | 66.0 | 5.01 | 82.18 | 43.1 | 59.5
CCCCCCCCCCCCCCN(CCCCCCCCCCCC(=O)OC)CCC1CCN(C(=O)CN(CCCCCCCCC)CCN(CCCCCCCCC)CCCCCCCCC)CC1 [Compound 116, Methyl 12-((2-(1-(N-(2-(dinonylamino)ethyl)-N-nonylglycyl)piperidin-4-yl)ethyl)(tetradecyl)amino)dodecanoate] | 1.01E+08 | 98.9 | 0.19 | 77.1 | 6.55 | 6.22 | 2.2 | 2
CCCCCCCCCCCCCCN(CCCCCCCC(=O)OCCCCC)CCC1CCCN(C(=O)CN(CCCCCCCCC)CCN(CCCCCCCCC)CCCCCCCCC)C1 (centres unmarked) [Compound 120, Pentyl 8-((2-(1-(N-(2-(dinonylamino)ethyl)-N-nonylglycyl)piperidin-3-yl)ethyl)(tetradecyl)amino)octanoate] | 4.17E+07 | 99.0 | 0.21 | 78.7 | 6.49 | 9.32 | 0.8 | 2.9
CCCCCCCCCN(CCCCCCCCC)CCN(CCCCCCCCC)CC(=O)N(C)CCN(C)C(=O)CN(CCCCCCCCC)CCCCCCCCC [Compound 151, 2-(Dinonylamino)-N-(2-(2-((2-(dinonylamino)ethyl)(nonyl)amino)-N-methylacetamido)ethyl)-N-methylacetamide] | 1.54E+08 | 98.8 | 0.18 | 77.4 | 7.46 | 75.96 | −0.7 | 2.1
CCCCCCCCCCCCCCN(CCCCCCCC(=O)OCCCCC)CC(=O)N1CCN(C(=O)CN(CCCCCCCCC)CCN(CCCCCCCCC)CCCCCCCCC)CC1 [Compound 90, Pentyl 8-((2-(4-(N-(2-(dinonylamino)ethyl)-N-nonylglycyl)piperazin-1-yl)-2-oxoethyl)(tetradecyl)amino)octanoate] | 2.08E+07 | 98.4 | 0.19 | 81.5 | 6.83 | 3.93 | 0.1 | 9.6
CCCCCCCCCCCCCCN(CCCCCCCC(=O)OCCCCC)CCC1CCN(C(=O)CN(CCCCCCCCC)CCN(CCCCCCCCC)CCCCCCCCC)C1 (centres unmarked) [Compound 124, Pentyl 8-((2-(1-(N-(2-(dinonylamino)ethyl)-N-nonylglycyl)pyrrolidin-3-yl)ethyl)(tetradecyl)amino)octanoate] | 3.88E+07 | 99.2 | 0.21 | 92.7 | 6.94 | 5.60 | −4.6 | −3.5
CCCCCCCCCCCCCCN(CCCCCC(=O)OCCCCCCC)CCC1CCCN(C(=O)CN(CCCCCCCCC)CCN(CCCCCCCCC)CCCCCCCCC)C1 (centres unmarked) [Compound 121, Heptyl 6-((2-(1-(N-(2-(dinonylamino)ethyl)-N-nonylglycyl)piperidin-3-yl)ethyl)(tetradecyl)amino)hexanoate] | 2.84E+07 | 98.6 | 0.22 | 75.7 | 6.50 | 13.97 | 0.3 | 1.5
CCCCCCCCCN(CCCCCCCCC)CCOC(=O)C1CCC(C(=O)OCCN(CCCCCCCCC)CCN(CCCCCCCCC)CCCCCCCCC)CC1 (centres unmarked) [Compound 128, 1-(2-(Dinonylamino)ethyl) 4-(2-((2-(dinonylamino)ethyl)(nonyl)amino)ethyl) cyclohexane-1,4-dicarboxylate] | 3.04E+05 | 97.1 | 0.20 | 68.0 | 4.93 | 52.19 | 6.9 | 12.2
CC/C=C\COC(=O)CCCN(CCCCCCCCC)CC(=O)N1CCN(C(=O)CN(CCCCCCCCC)CCN(CCCCCCCCC)CCCCCCCCC)CC1 [Compound 107, (Z)-Pent-2-en-1-yl 4-((2-(4-(N-(2-(dinonylamino)ethyl)-N-nonylglycyl)piperazin-1-yl)-2-oxoethyl)(nonyl)amino)butanoate] | 1.76E+08 | 96.6 | 0.19 | 80.6 | 6.99 | 38.15 | 4 | 3.6
CCCCCCCCCCCCCCN(CCCCCC(=O)OCCCCCCC)CCC1CCN(C(=O)CN(CCCCCCCCC)CCN(CCCCCCCCC)CCCCCCCCC)CC1 [Compound 94, Heptyl 6-((2-(1-(N-(2-(dinonylamino)ethyl)-N-nonylglycyl)piperidin-4-yl)ethyl)(tetradecyl)amino)hexanoate] | 2.39E+07 | 98.4 | 0.20 | 74.6 | 6.65 | 18.52 | 5.9 | 8.3
